Where two headings read alike, the source gives them in different places.
Experiments:
[1] = molecular target: T1, AEA-DA lipid probe targets in Neuro2a cells (Mus musculus, UniProt Q924D0); settings: protein Rtn4ip1, Neuro2a cells
T1 sequence (Q924D0 41-396): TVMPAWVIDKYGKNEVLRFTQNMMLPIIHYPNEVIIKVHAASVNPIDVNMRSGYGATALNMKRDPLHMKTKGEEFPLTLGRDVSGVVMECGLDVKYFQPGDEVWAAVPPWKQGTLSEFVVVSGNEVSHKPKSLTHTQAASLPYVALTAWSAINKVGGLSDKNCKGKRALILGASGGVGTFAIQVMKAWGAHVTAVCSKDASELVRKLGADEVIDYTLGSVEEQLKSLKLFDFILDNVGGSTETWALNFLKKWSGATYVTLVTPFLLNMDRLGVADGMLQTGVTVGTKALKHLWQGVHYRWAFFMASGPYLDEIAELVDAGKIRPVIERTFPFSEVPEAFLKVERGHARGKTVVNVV

[2] = molecular target: AEA-DA lipid probe targets in Neuro2a cells (Mus musculus, UniProt Q9JKW0)
Sequence of AEA-DA lipid probe targets in Neuro2a cells (Mus musculus, UniProt Q9JKW0) (Q9JKW0 whole entry): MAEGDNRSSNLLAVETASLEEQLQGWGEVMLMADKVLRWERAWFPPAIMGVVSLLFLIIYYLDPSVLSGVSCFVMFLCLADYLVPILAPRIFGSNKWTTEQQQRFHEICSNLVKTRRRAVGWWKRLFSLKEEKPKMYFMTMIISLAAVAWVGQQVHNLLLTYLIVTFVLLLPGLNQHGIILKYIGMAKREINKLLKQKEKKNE

[3] = molecular target: T2, AEA-DA lipid probe targets in Neuro2a cells (Mus musculus, UniProt Q6QD59)
T2 sequence (Q6QD59 1-228): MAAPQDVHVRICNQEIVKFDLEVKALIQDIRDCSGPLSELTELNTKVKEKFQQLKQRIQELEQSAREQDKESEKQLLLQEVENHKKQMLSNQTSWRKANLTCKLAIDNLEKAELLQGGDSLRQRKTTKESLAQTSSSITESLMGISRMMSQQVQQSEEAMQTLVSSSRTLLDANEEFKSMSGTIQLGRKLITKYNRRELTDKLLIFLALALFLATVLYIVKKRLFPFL

[4] = molecular target: T3, AEA-DA lipid probe targets in Neuro2a cells (Mus musculus, UniProt Q99P72)
T3 sequence (Q99P72 1-1162): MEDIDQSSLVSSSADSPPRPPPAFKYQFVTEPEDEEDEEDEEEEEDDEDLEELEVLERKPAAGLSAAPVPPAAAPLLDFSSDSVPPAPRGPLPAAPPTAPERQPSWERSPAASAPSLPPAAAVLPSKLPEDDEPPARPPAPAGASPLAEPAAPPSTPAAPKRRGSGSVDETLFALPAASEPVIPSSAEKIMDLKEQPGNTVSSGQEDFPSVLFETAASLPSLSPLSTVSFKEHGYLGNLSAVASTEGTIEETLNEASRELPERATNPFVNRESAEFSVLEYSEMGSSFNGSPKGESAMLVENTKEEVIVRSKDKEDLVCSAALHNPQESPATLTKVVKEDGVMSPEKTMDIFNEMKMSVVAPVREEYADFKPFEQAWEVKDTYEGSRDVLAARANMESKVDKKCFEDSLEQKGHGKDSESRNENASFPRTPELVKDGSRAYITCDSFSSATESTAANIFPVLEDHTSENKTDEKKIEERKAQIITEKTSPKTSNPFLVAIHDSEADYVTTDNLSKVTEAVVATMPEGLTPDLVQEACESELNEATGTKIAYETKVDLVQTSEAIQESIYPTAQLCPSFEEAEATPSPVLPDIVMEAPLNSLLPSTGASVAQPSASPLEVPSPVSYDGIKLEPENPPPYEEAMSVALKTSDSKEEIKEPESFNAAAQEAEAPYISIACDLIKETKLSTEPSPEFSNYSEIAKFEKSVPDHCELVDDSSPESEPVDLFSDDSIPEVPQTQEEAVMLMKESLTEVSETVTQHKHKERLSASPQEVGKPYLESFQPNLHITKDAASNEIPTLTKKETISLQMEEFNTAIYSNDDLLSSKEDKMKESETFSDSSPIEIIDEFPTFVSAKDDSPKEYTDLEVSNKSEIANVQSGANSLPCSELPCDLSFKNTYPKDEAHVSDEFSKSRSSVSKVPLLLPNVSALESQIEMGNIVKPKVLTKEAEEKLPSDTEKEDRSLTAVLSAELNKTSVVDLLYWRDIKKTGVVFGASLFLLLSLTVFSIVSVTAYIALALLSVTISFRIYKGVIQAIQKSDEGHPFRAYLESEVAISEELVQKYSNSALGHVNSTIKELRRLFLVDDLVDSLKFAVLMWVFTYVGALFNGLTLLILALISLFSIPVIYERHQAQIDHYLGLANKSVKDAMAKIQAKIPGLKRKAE

[5] = molecular target: T4, AEA-DA lipid probe targets in Neuro2a cells (Mus musculus, UniProt Q8VHE0)
T4 sequence (Q8VHE0 1-760): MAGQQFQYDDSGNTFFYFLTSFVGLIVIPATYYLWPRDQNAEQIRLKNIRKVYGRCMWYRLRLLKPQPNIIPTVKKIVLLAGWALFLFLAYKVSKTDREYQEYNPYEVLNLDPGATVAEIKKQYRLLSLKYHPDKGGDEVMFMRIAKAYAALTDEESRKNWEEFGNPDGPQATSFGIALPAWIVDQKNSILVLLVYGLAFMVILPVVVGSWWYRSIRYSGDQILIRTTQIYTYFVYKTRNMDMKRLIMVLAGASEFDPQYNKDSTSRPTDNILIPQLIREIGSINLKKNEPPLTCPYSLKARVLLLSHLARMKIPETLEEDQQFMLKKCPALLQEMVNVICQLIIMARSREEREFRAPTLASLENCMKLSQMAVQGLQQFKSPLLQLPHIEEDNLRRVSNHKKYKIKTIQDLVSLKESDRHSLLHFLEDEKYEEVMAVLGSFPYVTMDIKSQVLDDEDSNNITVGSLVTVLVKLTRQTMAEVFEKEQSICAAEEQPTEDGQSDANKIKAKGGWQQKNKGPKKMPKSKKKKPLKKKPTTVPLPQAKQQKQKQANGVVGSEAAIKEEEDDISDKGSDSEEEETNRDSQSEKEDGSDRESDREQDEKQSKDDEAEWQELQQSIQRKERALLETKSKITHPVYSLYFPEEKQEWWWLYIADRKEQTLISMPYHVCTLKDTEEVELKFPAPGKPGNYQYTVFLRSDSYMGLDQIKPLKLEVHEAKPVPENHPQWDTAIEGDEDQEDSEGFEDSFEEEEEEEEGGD

[6] = molecular target: T5, AEA-DA lipid probe targets in Neuro2a cells (Mus musculus, UniProt Q505D7); settings: for SILAC ratio, OPA3 (Q505D7): Neuro2a cells, AEA-DA probe
T5 sequence (Q505D7 1-179): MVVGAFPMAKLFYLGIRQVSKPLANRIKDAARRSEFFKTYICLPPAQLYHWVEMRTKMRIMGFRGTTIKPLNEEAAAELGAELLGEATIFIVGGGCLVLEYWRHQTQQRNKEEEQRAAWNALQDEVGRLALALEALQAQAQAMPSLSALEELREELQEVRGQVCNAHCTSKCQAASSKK

| Compound | SILAC ratio Arl6ip1 ([2]; competitor 25 μM) | SILAC ratio, Rtn4 ([4]; competitor 25 μM) | SILAC ratio, OPA3 (Q505D7) ([6]; competitor 25 μM) | SILAC ratio, Opa3 ([6]; competitor 25 μM) | SILAC ratio Sec63 ([5]; competitor 25 μM) | SILAC ratio, Bnip1 ([3]; competitor 25 μM) | SILAC ratio (AEA-DA competition) ([1]; competitor 25 μM) | further results |
| --- | --- | --- | --- | --- | --- | --- | --- | --- |
| CCCCC/C=C\C/C=C\C/C=C\C/C=C\CCCC(=O)NCCO [AEA, anandamide, reference compound] | – | – | – | – | – | – | – | SILAC ratio (AEA-DA competition) ([1]; competitor 200 μM): 1.0; SILAC ratio Arl6ip1 ([2]; competitor 200 μM): 1.5; SILAC ratio, Bnip1 ([3]; competitor 200 μM): 2.1; SILAC ratio, Rtn4 ([4]; competitor 200 μM): 1.8; SILAC ratio Sec63 ([5]; competitor 200 μM): 1.5 |
| O=C(/C=C/c1cccnc1)NCCCCC1CCN(C(=O)c2ccccc2)CC1 [FK-866, reference compound] | 1.0 | 1.1 | 1.1 | 1.1 | 1.1 | – | – | – |
| CN1CCN(C(=O)c2c(-c3ccccc3)c3cc([N+](=O)[O-])ccc3n2C)CC1 [KML110, (1-Methyl-5-nitro-3-phenyl-1H-indol-2-yl)(4-methylpiperazin-1-yl)methanone] | 1.4 | 1.4 | – | 1.6 | 1.5 | 1.3 | – | – |
| CN1CCN(C(=O)c2[nH]c3ccc([N+](=O)[O-])cc3c2-c2ccccc2)CC1 [MJN228, (4-Methylpiperazin-1-yl)(5-nitro-3-phenyl-1H-indol-2-yl)methanone] | 1.6 | 1.3 | 1.4 | 1.4 | 1.5 | 1.1 | 1.4 | SILAC ratio (AEA-DA competition) ([1]; competitor 10 μM): 1.0; SILAC ratio Arl6ip1 ([2]; competitor 10 μM): 0.8; SILAC ratio Arl6ip1 ([2]; competitor 100 μM): 1.5; SILAC ratio, Bnip1 ([3]; competitor 10 μM): 1.2; SILAC ratio, Rtn4 ([4]; competitor 10 μM): 1.0; SILAC ratio, Rtn4 ([4]; competitor 50 μM): 1.2; SILAC ratio, Rtn4 ([4]; competitor 100 μM): 1.4; SILAC ratio, Opa3 ([6]; competitor 10 μM): 1.4; SILAC ratio, Opa3 ([6]; competitor 50 μM): 1.5; SILAC ratio, Opa3 ([6]; competitor 100 μM): 1.9; SILAC ratio Sec63 ([5]; competitor 10 μM): 1.4; SILAC ratio Sec63 ([5]; competitor 50 μM): 1.8; SILAC ratio Sec63 ([5]; competitor 100 μM): 1.8 |
| C=CCN(C)CCCCCCOc1ccc(C(=O)c2ccc(Br)cc2)c(F)c1 [Ro 48-8071, reference compound] | 1.1 | 1.0 | 1.4 | 1.4 | 1.0 | 1.0 | 0.7 | – |
